Source: patent US20150004631A1, “Plasmodium falciparum HLA class I restricted T-cell epitopes” (priority 2013, published 2015)
No end group written: not given here.

What was measured:
Assay type in all cases: cell-based, human
PBMC [1] = experiment: ELISpot IFN-γ assay, PBMC of Ad5-PfCA immunized volunteers (Gp1); conditions: for ELISpot activity of 15 mer peptide: v005, 1 month PBMC
Description: […] In these studies, IFN-γ activity was measured in response to exposure to the peptide pools. The assays were conducted essentially as described by Wang, et al., Proc. Natl. Acad. Sci. (U.S.A.), 98: 10817-22.
The stimulation of circulating antigen-specific T cell lymphocytes was evaluated by measurement of γ-IFN induction by ELISPOT. The ELISpot assay was conducted using thawed cryopreserved PBMC at 200K cells per well. Pre-challenge cells were taken at day 21 and day 22 post AdPfCA vaccination. Cells were suspended in […] complete medium and were stimulated with AMA1 peptides suspended in […] of complete medium. Peptide concentrations used in assays was 10 μg/ml of each peptide tested. Cultures were incubated for 36 h at 37° C., 5% CO2. Depending on availability of cells, each PBMC sample was assayed in duplicate, triplicate, or quadruplicate and the number of IFN-γ-secreting cells recognized as spot-forming cells (SFC) was enumerated using an automated ELISpot reader. In duplicate assays, all values were used in analysis. For triplicate or quadruplicate assays, outliers were rejected if any single value contributed more than 50% of the standard deviation of the triplicate (or quadruplicate) and if its value was three-fold greater or less than the average of the remaining two (or three) values. The mean spot forming cells (SFCs) obtained in negative control wells were subtracted from the value of each test well from the same sample. Negative counts generated by this background subtraction were converted to zero. The mean spot number of the test sample was then calculated and expressed as SFC/million PBMCs. Values obtained with pre-vaccinated samples were subtracted from the post-vaccination values.

CD4+ and CD8+ T cells = experiment: Intracellular cytokine staining (ICS) of PBMC; conditions: for CD8^+ T cell IFN-γ response in ICS: HLA-matched volunteers, compared with parent peptide pool, FIG. 1 upper panel; for multifunctional CD8^+ T cell responses in ICS: v008 and v012, any two of IFN-γ, IL-2, TNF-α, FIG. 1 lower panel
Description: ICS was performed on PBMCs with costimulatory antibodies anti-CD28 and […] (obtained from BD Bioscience™, San Jose, Calif.). The peptides were used at the same concentrations as in ELISpot assays. Stimulants were added t cells and incubated at 37° C. with 5% CO2 for 2 hr. Golgi Plug™ (Brefeldin A) (BD Bioscience™, San Jose, Calif.) was added at a final concentration of 0.6 μL/mL and incubated at 37° C. with 5% CO2 overnight. Cells were stained with anti-CD3 (Alexa Fluor 700™), anti-CD4 (PerCP™), and anti-CD8 Pacific Blue™ (obtained from BD Bioscience™, San Jose, Calif.). and 1 μg/mL of live/dead fixable blue dye, incubated and washed. Cells were permeabilized with Cytofix/Cytoperm™ solution (obtained from BD Bioscience™, San Jose, Calif.), incubated and washed. Cells were stained intracellularly with anti-CD3 (Alexa Fluor 700™), anti-CD4 (PerCP™), and anti-CD8 Pacific Blue™, anti-IFN-γ FITC, anti-TNF PE, and anti-IL2 APC, incubated and washed. Cells were resuspended and the entire available sample was acquired by flowcytometry. The gating strategy included progressively measuring total cells; viable cells only; lymphocytes; T cells; CD4^+ CD8^+ populations; and a specific cell type expressing a specific cytokine. Histograms were used to determine the total production of IFN-γ, IL2, and TNF for the CD4^+ and CD8^+ populations. Boolean gates were used to determine cells producing combinations of cytokines.
In these studies, T cells containing IFN-γ, IL2, or TNFα, were gated into different subsets: IFN-γ+, IL2+, TNFα−; IFN-γ+, IL2−, TNFα+; IFN-γ+, IL2+, TNFα+; or IFN-γ+, IL2−, TNFα− T cells, and stimulated with the predicted epitopes and their parent peptide pool. The frequency of CD8^+ T cells producing total IFN-γ was far greater than CD4^+ T cell responses (FIG. 1, upper panel), which were extremely low.

[2] = test system: CD4+ or CD8+ T cell depleted PBMC; experiment: ELISpot IFN-γ assay after CD4+ or CD8+ T cell depletion of PBMC (Example 1); conditions: versus control depletion
Description: PBMC population depletion was conducted using anti-human CD4+ and anti-CD8^+ coated Dynabeads™ M-450 (Dynal, Great Neck, N.Y.) following the manufacturer's instructions. Mock depletion was done with Dynabeads coated with Sheep anti-mouse IgG. Flow cytometry confirmed that T-cell subset depletions were >99% in all experiments. The data is presented as the % effect (decrease) in activity after T cell subset depletion.
Finally, we wanted to confirm that indeed the responses to AMA14e were mediated by CD8^+ T cells. We compared activity to AMA14e in ELISpot depletion assays and ICS CD4^+ or CD8^+ T cell IFN-γ assays with Ap1-12 and recombinant AMA1 protein with v001 and v005 (FIG. 3). CD8^+ T cell depletion reduced ELISpot activity to AMA14e by about 85% in v001 and 95% in v005.

PBMC [3] = experiment: ELISpot IFN-γ assay, PBMC of AdPfCA / DNA prime-AdPfCA boost volunteers (Example 2); conditions: minimal epitope contained in Ap10; primarily CD8^+
Text: To more clearly define immunological active regions of AMA1, PBMCs were isolated from AMA1 immunized volunteers. Two groups of volunteers, i.e., Gp 1 (from example 1, above) and Gp2, received 2×10^10 particle units of AdPfCA (NMRC-M3V-Ad-PfCA, NMRC+Multi-antigen Multi-stage, Malaria Vaccine+Adenovector+P. falciparum CSP & AMA1 antigens). The vaccine is a combination of two separate recombinant Ad5 constructs, one expressing full length CSP and the other expressing full length apical membrane antigen 1 (AMA1). AdPfCA expressed the AMA1 regions A1 through A12. Twenty-eight (28) days later, PBMC's were collected.
In a third group (termed preCh in FIG. 7 and FIG. 8), fifteen volunteers were primed with three doses (2 mg/dose) with one month between doses. Sixteen weeks after the final DNA priming dose, each volunteer received 2×10^10 particle units of AdPfCA. PBMC's were collected on day 22-23 after receiving AdPfCA. […]
The stimulation of circulating antigen-specific T cell lymphocytes was evaluated by measurement of γ-IFN induction by ELISPOT. […] Depending on availability of cells, each PBMC sample was assayed in duplicate, triplicate, or quadruplicate and the number of IFN-γ-secreting cells recognized as spot-forming cells (SFC) was enumerated using an automated ELISpot reader. […] The mean spot number of the test sample was then calculated and expressed as SFC/million PBMCs. […]

CEIFNVKPTCLINNS [Ap8-12]
IFN-γ ELISpot activity of individual 15 mer peptide (PBMC [1]; Volunteer 005): 127 SFC/10^6

CNKLVFELSASDQPK [Ap7-7]
IFN-γ ELISpot activity of individual 15 mer peptide (PBMC [1]; Volunteer 001): 77 SFC/10^6

EDIPHVNEFPAIDLF [Ap7-3]
IFN-γ ELISpot activity of individual 15 mer peptide (PBMC [1]; Volunteer 001): 139 SFC/10^6

EMRHFYKDNKYVKNL [Ap4-11]
IFN-γ ELISpot activity of individual 15 mer peptide (PBMC [1]; Volunteer 005): 65 SFC/10^6
ELISpot activity of 15 mer peptide (PBMC [1]): 65 sfc/m

ETQKCEIFNV (listed as Plasmodium falciparum) [Ep # 10]
CD8^+ T cell IFN-γ response in ICS (CD4+ and CD8+ T cells): very weak CD8^+ IFN-γ responses
multifunctional CD8^+ T cell responses in ICS (CD4+ and CD8+ T cells): did not appear to induce multifunctional responses

ETQKCEIFNVKPTCL [Ap8-11]
IFN-γ ELISpot activity of individual 15 mer peptide (PBMC [1]; Volunteer 001): 48 SFC/10^6
IFN-γ ELISpot activity of individual 15 mer peptide (PBMC [1]; Volunteer 005): 218 SFC/10^6
IFN-γ ELISpot activity of individual 15 mer peptide (PBMC [1]; Volunteer 008): 48 SFC/10^6

FKADRYKSHGKGYNW [Ap8-6]
IFN-γ ELISpot activity of individual 15 mer peptide (PBMC [1]; Volunteer 012): 143 SFC/10^6

HPKEYEYPL (listed as Plasmodium falciparum) [Ep # 9]
CD8^+ T cell IFN-γ response in ICS (CD4+ and CD8+ T cells): equal or more CD8^+ IFN-γ than the parent peptide pool

HVNEFPAIDLFECNK [Ap7-4]
IFN-γ ELISpot activity of individual 15 mer peptide (PBMC [1]; Volunteer 001): 96 SFC/10^6

INEHREHPKEYEYPL [Ap1-11]
% effect on ELISpot activity, CD4 dep ([2]; V002): −18%
% effect on ELISpot activity, CD8 dep ([2]; V002): −94%
% effect on ELISpot activity, CD4 dep ([2]; V005): −37%
% effect on ELISpot activity, CD8 dep ([2]; V005): −100%
IFN-γ ELISpot activity of individual 15 mer peptide (PBMC [1]; Volunteer 002): 180 SFC/10^6
IFN-γ ELISpot activity of individual 15 mer peptide (PBMC [1]; Volunteer 005): 322 SFC/10^6

KEYEYPLHQEHTYQQ [Ap1-13]
% effect on ELISpot activity, CD4 dep ([2]; V001): +133%
% effect on ELISpot activity, CD8 dep ([2]; V001): −76%
IFN-γ ELISpot activity of individual 15 mer peptide (PBMC [1]; Volunteer 001): 42 SFC/10^6

LLSAFEFTYMINFGR [Ap1-3]
% effect on ELISpot activity, CD4 dep ([2]; V001): −32%
% effect on ELISpot activity, CD8 dep ([2]; V001): −56%
IFN-γ ELISpot activity of individual 15 mer peptide (PBMC [1]; Volunteer 001): 48 SFC/10^6

LMSPMTLDEMRHFYK [Ap4-9]
% effect on ELISpot activity, CD4 dep ([2]; V005): −32%
% effect on ELISpot activity, CD8 dep ([2]; V005): −100%
IFN-γ ELISpot activity of individual 15 mer peptide (PBMC [1]; Volunteer 002): 189 SFC/10^6
IFN-γ ELISpot activity of individual 15 mer peptide (PBMC [1]; Volunteer 005): 395 SFC/10^6

MTLDEMRHFYKDNKY [Ap4-10]
IFN-γ ELISpot activity of individual 15 mer peptide (PBMC [1]; Volunteer 002): 82 SFC/10^6
IFN-γ ELISpot activity of individual 15 mer peptide (PBMC [1]; Volunteer 005): 118 SFC/10^6

NEFPAIDLF (listed as Plasmodium falciparum) [Ep # 2]
CD8^+ T cell IFN-γ response in ICS (CD4+ and CD8+ T cells): equal or more CD8^+ IFN-γ than the parent peptide pool

NEVVVKEEY [Ep # 1, NEVVVKEEY]
CD8^+ T cell IFN-γ response in ICS (CD4+ and CD8+ T cells): equal or more CD8^+ IFN-γ than the parent peptide pool

NQYLKDGGFAFPPTE [Ap4-5]
IFN-γ ELISpot activity of individual 15 mer peptide (PBMC [1]; Volunteer 005): 50 SFC/10^6
ELISpot activity of 15 mer peptide (PBMC [1]): 50 sfc/m

NSTCRFFVCK (listed as Plasmodium falciparum)
T-cell response (IFN-γ SFC) (PBMC [3]): significant T-cell response

QNSDVYRPINEHREH [Ap1-9]
IFN-γ ELISpot activity of individual 15 mer peptide (PBMC [1]; Volunteer 001): 48 SFC/10^6

REHPKEYEYPLHQEH [Ap1-12]
IFN-γ ELISpot activity of individual 15 mer peptide (PBMC [1]; Volunteer 002): 66 SFC/10^6
IFN-γ ELISpot activity of individual 15 mer peptide (PBMC [1]; Volunteer 005): 118 SFC/10^6

RYKSHGKGY [Ep # 14, RYKSHGKGY]
ELISpot 7m, predicted 8-10 mer epitope (PBMC [1]; Vol 012, PBMC 7 months): 11
recognition of minimal epitope in ELISpot (PBMC [1]; v012, criteria for positive 40 SFC/million): negative
CD8^+ T cell IFN-γ response in ICS (CD4+ and CD8+ T cells): very weak CD8^+ IFN-γ responses
multifunctional CD8^+ T cell responses in ICS (CD4+ and CD8+ T cells): did not appear to induce multifunctional responses

TLDEMRHFY [Ep # 8]
ELISpot 4m, predicted 8-10 mer epitope (PBMC [1]; Vol 002, PBMC 4 months): 51
CD8^+ T cell IFN-γ response in ICS (CD4+ and CD8+ T cells): equal or more CD8^+ IFN-γ than the parent peptide pool

TSNNEVVVKEEYKDE [Ap10-13]
% effect on ELISpot activity, CD4 dep ([2]; V001): +148%
% effect on ELISpot activity, CD8 dep ([2]; V001): −88%
% effect on ELISpot activity, CD4 dep ([2]; V012): +14%
% effect on ELISpot activity, CD8 dep ([2]; V012): −100%
IFN-γ ELISpot activity of individual 15 mer peptide (PBMC [1]; Volunteer 001): 250 SFC/10^6
IFN-γ ELISpot activity of individual 15 mer peptide (PBMC [1]; Volunteer 012): 233 SFC/10^6
